Broadly, the IC50 is the concentration at which inhibition is half-maximal.

Molecules are shown by their SMILES.

Here are results for nine molecules from ChEMBL document CHEMBL5465560, “Selectivity Literature for EUbOPEN Chemogenomic Library” (2024).

In test [1] the target is T1, MAP kinase-activated protein kinase 5 (Homo sapiens) (UniProt Q8IW41).
T1 sequence (whole entry): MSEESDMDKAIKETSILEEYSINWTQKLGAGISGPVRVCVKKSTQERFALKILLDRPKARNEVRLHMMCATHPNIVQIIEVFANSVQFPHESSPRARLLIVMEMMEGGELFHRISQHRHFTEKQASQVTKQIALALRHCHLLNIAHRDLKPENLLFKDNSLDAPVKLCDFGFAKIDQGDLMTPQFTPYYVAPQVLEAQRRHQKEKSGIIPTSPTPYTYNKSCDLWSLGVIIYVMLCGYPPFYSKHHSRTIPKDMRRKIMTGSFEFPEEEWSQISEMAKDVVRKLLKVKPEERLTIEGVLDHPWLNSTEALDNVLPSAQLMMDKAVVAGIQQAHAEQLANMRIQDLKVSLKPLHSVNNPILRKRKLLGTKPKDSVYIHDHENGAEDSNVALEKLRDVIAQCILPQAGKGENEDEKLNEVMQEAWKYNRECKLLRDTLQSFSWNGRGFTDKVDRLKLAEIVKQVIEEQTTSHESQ
As to the kind of experiment: Selectivity interaction (Ambit KINOMEscan and KiNATiv profiling in Jurkat cells) EUB0000090b MAPKAPK5. The class given is cell-based. The conditions noted are these: at 1 µM.

For test [2], the target named is T2, Receptor-interacting serine/threonine-protein kinase 1 (Homo sapiens) (UniProt Q13546).
T2 sequence (whole entry): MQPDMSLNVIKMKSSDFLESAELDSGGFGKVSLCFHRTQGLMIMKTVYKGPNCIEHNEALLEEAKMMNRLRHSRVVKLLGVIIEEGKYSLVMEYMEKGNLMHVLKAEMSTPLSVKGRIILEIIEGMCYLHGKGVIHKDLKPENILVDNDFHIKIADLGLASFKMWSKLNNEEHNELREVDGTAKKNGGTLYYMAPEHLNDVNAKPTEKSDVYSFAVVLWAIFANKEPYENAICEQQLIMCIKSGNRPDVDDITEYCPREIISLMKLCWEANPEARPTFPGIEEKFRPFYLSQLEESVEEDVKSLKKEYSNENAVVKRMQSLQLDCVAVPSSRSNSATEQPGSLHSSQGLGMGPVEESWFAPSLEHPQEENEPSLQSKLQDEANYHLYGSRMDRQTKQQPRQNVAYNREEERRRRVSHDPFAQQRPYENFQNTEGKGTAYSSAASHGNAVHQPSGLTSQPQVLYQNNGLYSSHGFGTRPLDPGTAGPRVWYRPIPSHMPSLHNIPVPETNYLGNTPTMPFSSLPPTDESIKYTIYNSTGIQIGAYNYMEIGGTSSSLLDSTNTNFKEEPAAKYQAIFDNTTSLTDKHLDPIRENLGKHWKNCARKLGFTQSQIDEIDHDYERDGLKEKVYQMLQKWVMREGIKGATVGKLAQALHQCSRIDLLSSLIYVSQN
As to the kind of experiment: Selectivity interaction (Ambit KINOMEscan and KiNATiv profiling in Jurkat cells) EUB0000090b RIPK1. The note with it: at 1 µM. The class given is cell-based.

The target of test [3] is Calcium/calmodulin-dependent protein kinase type II subunit beta (Homo sapiens) (UniProt Q13554). The test is described as follows: Selectivity interaction (KinomeScan (DiscoverX)) EUB0000666a CAMK2B. The note with it: at 10 µM.
Calcium/calmodulin-dependent protein kinase type II subunit beta (Homo sapiens), sequence (Q13554 whole entry): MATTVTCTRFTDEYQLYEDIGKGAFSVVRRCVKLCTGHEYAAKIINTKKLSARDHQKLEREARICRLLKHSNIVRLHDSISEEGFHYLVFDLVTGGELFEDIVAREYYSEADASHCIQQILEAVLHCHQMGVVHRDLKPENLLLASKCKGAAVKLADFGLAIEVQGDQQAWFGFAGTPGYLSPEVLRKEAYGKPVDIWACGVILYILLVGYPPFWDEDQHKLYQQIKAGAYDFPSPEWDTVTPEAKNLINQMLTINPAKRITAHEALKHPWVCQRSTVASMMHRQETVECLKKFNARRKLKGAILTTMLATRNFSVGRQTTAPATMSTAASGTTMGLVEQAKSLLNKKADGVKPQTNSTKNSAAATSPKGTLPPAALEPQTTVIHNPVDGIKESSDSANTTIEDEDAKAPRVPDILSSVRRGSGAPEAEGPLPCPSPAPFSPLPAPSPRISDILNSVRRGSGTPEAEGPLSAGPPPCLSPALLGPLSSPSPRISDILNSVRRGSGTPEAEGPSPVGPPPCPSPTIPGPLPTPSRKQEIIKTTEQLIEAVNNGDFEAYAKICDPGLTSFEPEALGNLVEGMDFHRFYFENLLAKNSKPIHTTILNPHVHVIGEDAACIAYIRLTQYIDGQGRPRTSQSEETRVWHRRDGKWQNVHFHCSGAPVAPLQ
The target in test [4] is CDK4/Cyclin D3 (Homo sapiens) (UniProt P11802+P30281). The test is described as follows: (§1) Selectivity interaction (KinomeScan (DiscoverX)) EUB0000655a CDK4. The class given is protein-complex assay. The note with it: at 10 µM.
In test [5] the target is Cyclin-dependent kinase 4/cyclin D1 (Homo sapiens) (UniProt P11802+P24385). Described as §1. The test is classed as protein-complex assay. The note with it: at 10 µM.
The target in test [6] is TRAF2 and NCK-interacting protein kinase (Homo sapiens) (UniProt Q9UKE5). The test is described as follows: Selectivity interaction (KinomeScan (DiscoverX)) EUB0001079a TNIK. The conditions noted are these: at 1 µM.
TRAF2 and NCK-interacting protein kinase (Homo sapiens), sequence (Q9UKE5 whole entry, looked up): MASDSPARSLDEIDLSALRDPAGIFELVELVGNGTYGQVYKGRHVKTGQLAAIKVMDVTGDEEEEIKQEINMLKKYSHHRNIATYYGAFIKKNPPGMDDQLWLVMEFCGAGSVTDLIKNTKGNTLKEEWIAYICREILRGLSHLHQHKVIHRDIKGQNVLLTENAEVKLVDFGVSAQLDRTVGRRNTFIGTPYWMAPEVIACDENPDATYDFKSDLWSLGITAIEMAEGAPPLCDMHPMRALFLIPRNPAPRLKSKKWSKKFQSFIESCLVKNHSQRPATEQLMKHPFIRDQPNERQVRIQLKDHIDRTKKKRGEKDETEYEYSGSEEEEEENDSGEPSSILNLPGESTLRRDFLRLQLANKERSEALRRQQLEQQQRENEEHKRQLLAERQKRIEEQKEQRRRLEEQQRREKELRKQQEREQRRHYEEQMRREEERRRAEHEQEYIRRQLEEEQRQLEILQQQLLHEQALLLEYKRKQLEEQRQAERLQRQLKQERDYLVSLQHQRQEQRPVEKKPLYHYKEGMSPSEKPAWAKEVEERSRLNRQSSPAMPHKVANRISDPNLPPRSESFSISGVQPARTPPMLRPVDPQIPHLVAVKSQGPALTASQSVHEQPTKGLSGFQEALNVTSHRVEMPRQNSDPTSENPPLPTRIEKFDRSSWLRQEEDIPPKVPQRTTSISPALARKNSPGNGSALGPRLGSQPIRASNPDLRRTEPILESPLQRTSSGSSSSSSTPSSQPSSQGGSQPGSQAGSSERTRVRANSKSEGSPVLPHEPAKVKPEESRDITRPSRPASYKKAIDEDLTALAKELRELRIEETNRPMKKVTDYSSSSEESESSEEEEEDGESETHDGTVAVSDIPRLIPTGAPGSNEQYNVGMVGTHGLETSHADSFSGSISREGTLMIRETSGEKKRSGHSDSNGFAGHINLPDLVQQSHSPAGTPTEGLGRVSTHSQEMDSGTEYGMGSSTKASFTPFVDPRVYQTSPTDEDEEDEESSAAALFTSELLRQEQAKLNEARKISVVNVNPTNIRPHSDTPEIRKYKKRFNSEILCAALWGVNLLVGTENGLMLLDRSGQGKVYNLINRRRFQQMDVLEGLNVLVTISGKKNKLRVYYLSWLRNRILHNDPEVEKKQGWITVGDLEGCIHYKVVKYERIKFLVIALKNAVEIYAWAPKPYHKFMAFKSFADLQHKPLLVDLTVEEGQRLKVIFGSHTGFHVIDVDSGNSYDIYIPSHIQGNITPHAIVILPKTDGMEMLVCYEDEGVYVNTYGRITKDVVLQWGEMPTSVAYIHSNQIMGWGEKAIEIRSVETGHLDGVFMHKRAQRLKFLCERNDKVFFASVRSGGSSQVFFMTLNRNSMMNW
Test [7] addresses Serine/threonine-protein kinase PLK1 (Homo sapiens, UniProt P53350). As to the kind of experiment: Selectivity interaction (Kinase panel (literature)) EUB0001199aCl PLK1. The conditions noted are these: at 1 µM.
The nature of test [8]: Selectivity interaction (Androgen receptor agonist/antagonist FRET assay, rat recombinant ) EUB0000877a AR.
In test [9] the target is Tyrosine-protein kinase Fer (Homo sapiens) (UniProt P16591). The test is described as follows: Selectivity interaction (ActivX KiNativ screen (kinase selectivity in THP-1 cell lysates)) EUB0000639a FER. The test is classed as subcellular. The conditions noted are these: lysate, at 1 µM.
Tyrosine-protein kinase Fer (Homo sapiens), sequence (P16591 whole entry, looked up): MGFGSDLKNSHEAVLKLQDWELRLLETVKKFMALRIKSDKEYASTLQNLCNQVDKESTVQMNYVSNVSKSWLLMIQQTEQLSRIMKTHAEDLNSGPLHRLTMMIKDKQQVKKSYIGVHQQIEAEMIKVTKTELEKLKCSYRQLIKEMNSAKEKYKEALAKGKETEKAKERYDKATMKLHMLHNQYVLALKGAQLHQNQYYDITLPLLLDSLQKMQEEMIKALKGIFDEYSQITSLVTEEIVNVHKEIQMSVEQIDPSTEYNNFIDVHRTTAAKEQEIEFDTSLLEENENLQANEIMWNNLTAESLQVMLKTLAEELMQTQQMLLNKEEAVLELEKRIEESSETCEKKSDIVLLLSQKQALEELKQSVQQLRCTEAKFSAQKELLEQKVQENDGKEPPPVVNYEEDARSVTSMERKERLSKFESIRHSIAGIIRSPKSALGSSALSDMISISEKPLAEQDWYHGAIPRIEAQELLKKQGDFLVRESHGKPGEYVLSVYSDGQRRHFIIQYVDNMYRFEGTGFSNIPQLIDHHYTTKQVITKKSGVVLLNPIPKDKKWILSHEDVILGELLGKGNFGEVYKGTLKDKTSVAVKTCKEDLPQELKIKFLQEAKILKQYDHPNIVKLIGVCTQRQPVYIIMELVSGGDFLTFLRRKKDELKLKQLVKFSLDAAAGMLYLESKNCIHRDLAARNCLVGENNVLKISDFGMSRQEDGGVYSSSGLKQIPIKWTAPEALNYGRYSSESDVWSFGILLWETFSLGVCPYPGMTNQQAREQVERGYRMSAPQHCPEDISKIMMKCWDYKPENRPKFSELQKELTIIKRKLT
In test [10] the target is Serine/threonine-protein kinase 32C (Homo sapiens) (UniProt Q86UX6). The test is described as follows: Selectivity interaction (ActivX KiNativ screen (kinase selectivity in THP-1 cell lysates)) EUB0000639a STK32C. The conditions noted are these: lysate. The test is classed as subcellular.
Serine/threonine-protein kinase 32C (Homo sapiens), sequence (Q86UX6 whole entry): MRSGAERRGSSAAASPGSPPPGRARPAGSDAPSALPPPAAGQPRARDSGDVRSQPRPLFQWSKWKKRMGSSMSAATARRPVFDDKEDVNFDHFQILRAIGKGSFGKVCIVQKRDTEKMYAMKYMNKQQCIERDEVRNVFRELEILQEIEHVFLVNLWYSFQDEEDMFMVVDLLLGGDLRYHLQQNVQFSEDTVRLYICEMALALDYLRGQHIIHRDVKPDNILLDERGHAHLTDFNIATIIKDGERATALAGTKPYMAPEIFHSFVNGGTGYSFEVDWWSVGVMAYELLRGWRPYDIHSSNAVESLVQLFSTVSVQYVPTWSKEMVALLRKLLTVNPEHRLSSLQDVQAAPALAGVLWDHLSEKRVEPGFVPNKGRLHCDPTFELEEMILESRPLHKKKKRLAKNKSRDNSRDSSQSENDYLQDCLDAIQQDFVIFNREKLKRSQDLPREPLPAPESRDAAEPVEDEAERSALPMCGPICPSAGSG
Test [11] addresses Ribosomal protein S6 kinase alpha-4 (Homo sapiens) (UniProt O75676). The test is described as follows: Selectivity interaction (KinomeScan (DiscoverX)) EUB0000092b RPS6KA4. The conditions noted are these: at 10 µM.
Test [12] deals with T3, Eukaryotic elongation factor 2 kinase (Homo sapiens) (UniProt O00418).
T3 sequence (whole entry): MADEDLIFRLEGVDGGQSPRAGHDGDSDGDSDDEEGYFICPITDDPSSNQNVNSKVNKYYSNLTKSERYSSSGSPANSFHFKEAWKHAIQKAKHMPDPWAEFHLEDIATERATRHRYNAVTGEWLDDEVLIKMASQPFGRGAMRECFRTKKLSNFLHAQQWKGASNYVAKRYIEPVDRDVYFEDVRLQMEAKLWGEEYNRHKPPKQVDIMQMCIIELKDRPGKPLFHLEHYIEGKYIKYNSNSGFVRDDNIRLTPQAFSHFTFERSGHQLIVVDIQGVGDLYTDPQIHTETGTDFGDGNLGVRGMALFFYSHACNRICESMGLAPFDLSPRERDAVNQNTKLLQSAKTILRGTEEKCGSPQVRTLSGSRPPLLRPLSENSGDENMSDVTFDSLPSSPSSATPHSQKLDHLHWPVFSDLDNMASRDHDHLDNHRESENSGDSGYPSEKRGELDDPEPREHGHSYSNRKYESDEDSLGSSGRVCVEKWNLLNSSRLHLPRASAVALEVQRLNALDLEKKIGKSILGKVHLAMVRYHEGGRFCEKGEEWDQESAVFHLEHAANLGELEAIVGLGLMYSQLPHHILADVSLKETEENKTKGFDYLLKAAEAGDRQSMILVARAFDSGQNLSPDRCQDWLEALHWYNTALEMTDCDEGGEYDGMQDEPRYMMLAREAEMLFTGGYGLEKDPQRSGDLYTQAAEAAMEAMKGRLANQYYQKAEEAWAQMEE
The test is described as follows: Selectivity interaction (Upstate Kinase Profiler service (Millipore)) EUB0000056c EEF2K. The conditions noted are these: at 1 µM.

Serine/threonine-protein kinase PLK1, sequence (P53350 whole entry): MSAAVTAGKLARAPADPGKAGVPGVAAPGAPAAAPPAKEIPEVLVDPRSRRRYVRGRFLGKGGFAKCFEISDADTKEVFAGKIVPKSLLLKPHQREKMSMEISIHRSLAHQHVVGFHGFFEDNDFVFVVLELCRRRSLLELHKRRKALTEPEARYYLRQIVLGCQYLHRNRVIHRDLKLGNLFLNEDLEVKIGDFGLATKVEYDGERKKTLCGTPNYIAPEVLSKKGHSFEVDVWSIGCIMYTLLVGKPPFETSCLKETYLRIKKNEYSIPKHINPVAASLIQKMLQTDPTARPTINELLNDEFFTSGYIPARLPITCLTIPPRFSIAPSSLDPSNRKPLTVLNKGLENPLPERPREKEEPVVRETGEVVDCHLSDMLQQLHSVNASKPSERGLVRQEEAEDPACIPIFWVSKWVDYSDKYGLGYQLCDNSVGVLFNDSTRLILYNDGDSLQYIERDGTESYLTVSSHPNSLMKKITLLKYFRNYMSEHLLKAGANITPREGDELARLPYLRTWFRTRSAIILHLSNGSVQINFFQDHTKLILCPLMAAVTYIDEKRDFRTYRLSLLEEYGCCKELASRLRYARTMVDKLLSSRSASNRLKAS
Ribosomal protein S6 kinase alpha-4 (Homo sapiens), sequence (O75676 whole entry, looked up): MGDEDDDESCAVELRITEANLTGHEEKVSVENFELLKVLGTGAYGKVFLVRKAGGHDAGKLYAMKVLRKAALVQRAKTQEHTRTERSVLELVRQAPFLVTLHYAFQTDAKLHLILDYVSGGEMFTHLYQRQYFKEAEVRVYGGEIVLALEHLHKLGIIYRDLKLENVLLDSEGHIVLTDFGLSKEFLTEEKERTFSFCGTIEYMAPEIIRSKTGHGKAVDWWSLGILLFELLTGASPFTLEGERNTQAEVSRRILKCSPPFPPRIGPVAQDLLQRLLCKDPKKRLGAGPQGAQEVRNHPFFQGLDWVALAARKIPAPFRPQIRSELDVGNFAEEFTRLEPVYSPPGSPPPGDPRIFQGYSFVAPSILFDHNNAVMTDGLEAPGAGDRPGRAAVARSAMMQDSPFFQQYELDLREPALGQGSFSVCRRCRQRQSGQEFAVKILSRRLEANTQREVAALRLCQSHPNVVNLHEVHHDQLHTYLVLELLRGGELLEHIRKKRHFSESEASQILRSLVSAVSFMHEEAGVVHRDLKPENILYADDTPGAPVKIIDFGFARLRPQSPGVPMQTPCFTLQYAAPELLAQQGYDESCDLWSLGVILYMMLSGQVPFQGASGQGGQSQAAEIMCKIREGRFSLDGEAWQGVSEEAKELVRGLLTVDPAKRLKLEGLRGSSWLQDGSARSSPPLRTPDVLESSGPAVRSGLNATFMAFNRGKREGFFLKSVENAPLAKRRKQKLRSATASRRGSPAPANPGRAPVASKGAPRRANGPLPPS

Consider `CN(C)C/C=C/C(=O)Nc1ccc(C(=O)N2CCCC(Nc3ncc(Cl)c(-c4c[nH]c5ccccc45)n3)C2)cc1` (stereo unspecified), for which the figures for the % of control in test [1] and in [2] were 99% and 94%, respectively.

`O=C(NOC[C@H](O)CO)c1ccc(F)c(F)c1Nc1ccc(I)cc1F`: the % of control in test [3] is 100%.

For `CN(C)CCOc1ccc(-c2nc(-c3ccncc3)c(-c3ccc4c(c3)CC/C4=N\O)[nH]2)cc1`, the % of control in test [4] stood at 86%; in [5], 58%.

`Nc1cnc(N2CCc3cc(S(=O)(=O)Nc4c(F)cc(Cl)cc4F)cc(N4CCCC4=O)c32)nc1` [TP-020n] yielded a % of control in test [6] of 100%.

`CN1Cc2nccc(-c3cn(C)nc3-c3ccc(F)cc3)c2C1=O`: in [7], the % of inhibition is -3%.

In the case of `CCC(=O)N1CC[C@H](Nc2ncnc3c2CN(c2cnc(OC)c(C(F)(F)F)c2)CC3)C1` [LENIOLISIB], the IC50 in [8] was above 30 µM.

Turning to `CC[C@@H]1[C@H](F)C(=O)N[C@@H]1COc1nccc2cc(C(N)=O)c(OC)cc12` [ZIMLOVISERTIB], the % of inhibition was -8.9% in test [9]; -1.5% in test [10] (at 0.01 µM); -7.2% in test [10] (at 0.04 µM); -0.3% in test [10] (at 0.2 µM); -5.2% in [10] (at 1 µM); -11.5% in [10] (at 5 µM).

On to `CCC(=O)N1CCN(c2ccc(-n3c(=O)ccc4cnc5ccc(-c6cnc7ccccc7c6)cc5c43)cc2C(F)(F)F)CC1`, for which the % of control in [11] came out at 100%.

`Cc1ccc(-c2ccc3c(ccc4sc5c(c43)NC[C@@H](C)NC5=O)n2)cn1`: the % of inhibition in test [12] was -6%.
